One compound from publication PMC11509018, “Evaluation of the Role of Tanshinone I in an In Vitro System of Charcot-Marie-Tooth Disease Type 2N” (International Journal of Molecular Sciences, 2024) can be followed below.

The target of the assay is T1, AlaRS E337K binding to GST-Nrp1 b1 (Homo sapiens, UniProt P49588, E337K).
T1 construct: made in house; host or cells: E. coli BL21 (DE3), pET-21a for AlaRS
T1 sequence (P49588 1-968 E337K): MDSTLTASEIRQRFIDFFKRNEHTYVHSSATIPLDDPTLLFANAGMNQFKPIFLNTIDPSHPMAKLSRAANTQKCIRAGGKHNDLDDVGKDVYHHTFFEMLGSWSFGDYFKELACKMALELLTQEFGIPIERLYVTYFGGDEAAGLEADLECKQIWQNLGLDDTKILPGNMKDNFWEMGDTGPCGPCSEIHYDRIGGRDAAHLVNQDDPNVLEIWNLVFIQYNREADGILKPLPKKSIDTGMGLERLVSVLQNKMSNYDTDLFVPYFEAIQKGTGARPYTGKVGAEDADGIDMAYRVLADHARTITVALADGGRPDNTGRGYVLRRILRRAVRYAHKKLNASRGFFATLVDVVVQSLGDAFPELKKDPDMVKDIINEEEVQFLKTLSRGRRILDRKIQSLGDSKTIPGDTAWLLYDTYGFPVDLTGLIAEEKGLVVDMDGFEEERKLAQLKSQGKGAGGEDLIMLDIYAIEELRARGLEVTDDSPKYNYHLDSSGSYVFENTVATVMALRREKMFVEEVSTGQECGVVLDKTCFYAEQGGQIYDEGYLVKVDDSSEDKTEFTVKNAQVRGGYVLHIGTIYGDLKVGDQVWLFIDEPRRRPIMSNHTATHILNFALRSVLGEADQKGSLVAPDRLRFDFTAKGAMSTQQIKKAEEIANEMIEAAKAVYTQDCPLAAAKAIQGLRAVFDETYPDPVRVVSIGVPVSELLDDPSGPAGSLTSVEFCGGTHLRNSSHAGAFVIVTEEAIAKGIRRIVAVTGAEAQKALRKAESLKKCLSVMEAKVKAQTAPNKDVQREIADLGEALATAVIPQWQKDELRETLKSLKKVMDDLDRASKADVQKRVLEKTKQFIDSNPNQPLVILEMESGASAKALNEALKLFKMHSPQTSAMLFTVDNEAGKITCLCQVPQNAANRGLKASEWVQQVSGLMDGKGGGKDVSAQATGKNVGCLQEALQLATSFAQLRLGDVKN
The experiment in a line: GST pull down assay. The following applies: 20 µM Tanshinone I, ImageJ, average of three repeats.

`Cc1coc2c1C(=O)C(=O)c1c-2ccc2c(C)cccc12` [Tanshinone I]: the “Mean density band (E337K), relative quantification of AlaRS mutant pulled down” value was found to be 0.90.
